Data reported in article PMC5947539, “Cyclometalated iridium(III) complexes as lysosome-targeted photodynamic anticancer and real-time tracking agents” (Chemical Science, 2015).
Where two headings read alike, the source gives them in different places.

Experiments:
[1] = tested on: caspase-3/7 activity in A549 cells; assay: Caspase-3/7 activity assay (Caspase-Glo); type: cell-based, human; settings: for increase in caspase-3/7 activity: vs control cells in the dark
Description: (§1) concentrations for 24 h with or without light irradiation. After A549 cells were incubated with 2 for 12 h, the cells were irradiated with a 425 nm LED light array (40 mW cmí2) for 15 min (36 J cmí2).
(§2) When necessary, the cells were incubated with NaN3 (10 mM) for 1 h before PDT treatment. The cells were washed twice with PBS gently and fixed with 4% paraformalclehyde for 30 min at room temprature. The cells were washed with PBS twice, and then Hoechst 33342 (5 µg/mL) in PBS was added to the media by gently shaking in the dark for 10 min. The cells were washed with PBS twice and visualized by confocal microscopy (LSM 710, Carl Zeiss, Göttingen, Germany). Emission was collected at 460 ± 20 nm upon excitation at 405 nm.
Caspase-3/7 activity assay
Caspase-3/7 activity was measured using Caspase-Glo® Assay kit (Promega, Madison, WI, USA) according to the manufacturer's instructions. Briefly, cells were cultured in 96-well plates and treated […]
incubated with 2 or cisplatin for 12 h, the cells were irradiated with a 425 nm LED light array (40 mW cmí2) for 15 min (36 J cmí2). 100 µL of Caspase-Glo® 3/7 reagent was added to each well containing 100 µL culture media. The mixture was incubated at room temperature for 1 h and then the luminescence was measured using a microplate reader (Infinite M200 Pro, Tecan, Männedorf, […]
The cells were further treated with 10 ȝM DCF-DA for 20 min at 37 °C in the dark and then then irradiated with a 425 nm LED light array (40 mW cmí2) for 15 min (36 J cmí2). After the treatment, the cells were harvested and washed twice with serum-free RPMI 1640, the fluorescence intensity of DCF in A549 cells was measured by flow cytometry (FACSCaliburTM, Becton Dickinson, Franklin Lakes, NJ, USA). The results were analyzed by FlowJo Software (Tree Star, OR, USA). […]
(§3) concentrations for 12 h and then irradiated with a 425 nm LED light array (40 mW cmí2) for 15 min

[2] = tested on: A549cisR cells; assay: (Photo)cytotoxicity, MTT assay, A549cisR; type: cell-based, human; settings: for PI (phototoxicity index): IC50 dark / IC50 light
Description: (§4) Cell lines and culture conditions
(§5) A549, A549cisR, MCF-7 and LO2 cells were obtained from Experimental Animal Center of Sun Yat-sen University (Guangzhou, China). Cells were maintained in DMEM (Dulbecco’s modified […]
(§6) medium, which contained 10% FBS (fetal bovine serum, Gibco BRL), 100 ȝg/mL streptomycin (Gibco BRL), and 100 U/mL penicillin (Gibco BRL). The cells were cultured in a humidified […]
(§7) In each experiment, cells treated with vehicle control (1% DMSO) were kept as the reference group.
(§8) The cytotoxicity in the dark and phototoxicity of the tested compounds toward A549, A549cisR, MCF-7 and LO2 cell lines was determined by MTT assay.
(§9) For cytotoxicity in the dark, cells cultured in 96-well plates were grown to confluence. The compounds were dissolved in DMSO (1%, v/v), and diluted with fresh media immediately. the cells were incubated with a series of concentrations of the tested compounds for 44 h at 37 °C. 20 ȝL of MTT solution was then added to each well, and the plates were incubated for an additional 4 h. The media was carefully removed, and DMSO was added (150 µL per well) and incubated for 10 min with shaking. The absorbance at 595 nm was measured using a microplate reader (Infinite M200 Pro, Tecan, Männedorf, Switzerland).
(§10) For phototoxicity, the cells were incubated with the tested compounds for 12 h. The media containing the iridium complexes was removed and fresh media without the complexes was added.
(§11) After another 32 h of incubation, MTT was added. The cytotoxicity was determined as described

[3] = tested on: LO2 cells; assay: (Photo)cytotoxicity, MTT assay, LO2; type: cell-based, human; settings: for PI (phototoxicity index): IC50 dark / IC50 light
Description: as §4, §5, §6, §7, §8, §9, §10, §11

[4] = tested on: MCF-7 cells; assay: (Photo)cytotoxicity, MTT assay, MCF-7; type: cell-based, human; settings: for PI (phototoxicity index): IC50 dark / IC50 light
Description: as §4, §5, §6, §7, §8, §9, §10, §11

[5] = tested on: A549 cells; assay: (Photo)cytotoxicity, MTT assay, A549; type: cell-based, human; settings: for PI (phototoxicity index) / IC50: A549; for PI (phototoxicity index): IC50 dark / IC50 light
Description: as §4, §5, §6, §7, §8, §9, §10, §11

[6] = tested on: A549 cells; settings: A549, 0.5 μM with light (36 J cm–2)
Description: Annexin V/propidium iodide double staining assay
The assay was performed according to the manufacturer's (Sigma Aldrich, USA) protocol. A549 cells
a 425 nm LED light array (40 mW cmí2) at different light doses (12, 24 or 36 J cmí2).
necessary, the cells were incubated with NaN3 (10 mM) for 1 h before PDT treatment. For flow
cytometry analysis, the cells were harvested and re-suspended in 500 ȝL annexin-binding buffer (10
mM HEPES, 140 mM NaCl, 2.5 mM CaCl2, pH 7.4). The cell suspension was stained with 5 ȝL
annexin V and 10 ȝL propidium iodide at room temperature for 15 min in the dark, and then
analyzed immediately by flow cytometry (FACSCaliburTM, Becton Dickinson, NJ, USA). The
resulting dot blots were analyzed by FlowJo Software (Tree Star, OR, USA). For confocal
microscopy analysis, the cells were washed twice with PBS, and then incubated with 500 ȝL annexin-binding buffer supplemented with 5 ȝL annexin V and 10 ȝL propidium iodide at room
temperature for 15 min in the dark. The samples were visualized immediately by confocal
microscopy (LSM 710, Carl Zeiss, Göttingen, Germany). Emission was collected at 530 ± 20 nm
(annexin V) and 620 ± 20 nm (propidium iodide) upon excitation at 488 nm.

[7] = tested on: A549 cells; settings: A549, 0.5 μM with light (36 J cm–2), vs control cells treated with light alone
Description: as §1
as §2, with “nm. […]” for “nm.”
Caspase-3/7 activity was measured using Caspase-Glo® Assay kit (Promega, Madison, WI, USA) according to the manufacturer's instructions. […]
incubated with 2 or cisplatin for 12 h, the cells were irradiated with a 425 nm LED light array (40 mW cmí2) for 15 min (36 J cmí2). […] The mixture was incubated at room temperature for 1 h and then the luminescence was measured using a microplate reader (Infinite M200 Pro, Tecan, Männedorf, […]
The cells were further treated with 10 ȝM DCF-DA for 20 min at 37 °C in the dark and then then irradiated with a 425 nm LED light array (40 mW cmí2) for 15 min (36 J cmí2). […] The results were analyzed by FlowJo Software (Tree Star, OR, USA). […]

[8] = tested on: A549 and LO2 cells; settings: 0.5 μM, light 36 J cm–2, annexin V/propidium iodide staining
Description: as §3

[9] = dark, incubated 48 h, read-out: IC50 Dark
[10] = incubated 12 h then 425 nm LED 15 min (36 J cm–2), read-out: IC50 (light) (converted)
[11] = Homo sapiens, dark, incubated 48 h, read-out: IC50 Dark
[12] = Homo sapiens, incubated 12 h then 425 nm LED 15 min (36 J cm–2), read-out: IC50 (light) (converted)
[13] = Homo sapiens, L02, dark, incubated 48 h, read-out: IC50 Dark
[14] = Homo sapiens, L02, incubated 12 h then 425 nm LED 15 min (36 J cm–2), read-out: IC50 (light) (converted)

Compound | PI (phototoxicity index) [2] | IC50 [2, 9] | IC50 [2, 10] | PI (phototoxicity index) [3] | IC50 [3, 9] | IC50 [3, 10] | PI (phototoxicity index) [4] | PI (phototoxicity index) [5] | IC50 [5, 9] | IC50 [5, 10] | IC50 [2, 11] | IC50 [2, 12] | IC50 [3, 13] | IC50 [3, 14] | IC50 [5, 11] | IC50 [5, 12] | also measured
N.N.[Cl][Pt][Cl] [Cisplatin, reference compound] | 1.0 | 85.5 ± 5.3 µM | 86.1 µM | 1.0 | 31.2 ± 2.7 µM | 30.5 µM | 1.1 | 1.0 | 23.3 ± 2.6 µM | 22.6 µM |  |  |  |  |  |  | effect of light irradiation on caspase-3/7 activation ([1]; A549, 425 nm light (36 J cm–2)): no effect
c1ccc2c(c1)[nH]c1c(-c3ncc[nH]3)nccc12 [Complex L1, 1-(2-imidazolyl)-β-carboline, reference compound] | 2.2 |  |  | >2.1 |  |  | 16.3 | >5.7 |  |  | 42.6 ± 3.8 µM | 19.7 µM | > 100 µM | 47.4 µM | > 100 µM | 17.6 µM | 
c1ccc2[nH]c(-c3nccc4c3[nH]c3ccccc34)nc2c1 [Complex L2, 1-(2-benzimidazolyl)-β-carboline] |  |  |  |  |  |  |  |  |  |  | > 100 µM | > 100 µM | > 100 µM | > 100 µM | > 100 µM | > 100 µM | 
Ir2(dfppy)4Cl2 [reference compound] | 1.0 | 4.3 ± 0.5 µM | 4.2 µM | 1.4 | 29.6 ± 3.1 µM | 21.5 µM | 5.2 | 1.2 | 11.5 ± 1.5 µM | 9.3 µM |  |  |  |  |  |  | 
Ir2(ppy)4Cl2 [reference compound] | 2.9 | 20.2 ± 2.3 µM | 7 µM | 1.3 | 28.5 ± 2.4 µM | 21.3 µM | 4.3 | 1.7 | 19.6 ± 2.6 µM | 11.4 µM |  |  |  |  |  |  | 
[Ir(N^C)2(N^N)](PF6) in which N^C = 2-phenylpyridine and N^N = 1-(2-benzimidazolyl)-β-carboline [Complex 2] | >625 | > 100 µM | 0.16 µM |  | > 100 µM | 4.4 µM | > 769 | >833 | ≥ 100 µM | 0.12 µM |  |  |  |  |  |  | increase in caspase-3/7 activity ([1]; A549, 0.5 μM and light (36 J cm–2)): approximately 5.7 fold; increase in caspase-3/7 activity ([1]; A549, compound alone (dark)): negligible increase; percentage of apoptotic cells [6]: 69.7%; IC50 ([4]; incubated 12 h then 425 nm LED 15 min (36 J cm-2), read-out: IC50 Light): 0.13 ± 0.02 µM; increase in the mean fluorescence intensity of DCF [7]: ca. 17 fold; selectivity of PDT in A549/LO2 co-culture [8]: high selectivity towards cancer over normal cells; fold higher phototoxicity against A549 cells than against LO2 cells ([5]; light IC50 A549 vs LO2): over 36 fold
